Source: patent publication US12528774B2, “Thiosemicarbazone compounds and uses thereof” (The Regents of the University of California, priority 2019, dated 2026)

Columns and labels:
[1] = tested on: normal human epithelial cell line HPDE; experiment: Proliferation assay in normal epithelial cell line HPDE; assay type: cell-based
Protocol: Serum copper levels are elevated (>20 μM) in individuals with solid tumor types such as pancreatic ductal adenocarcinoma (PDAC), small cell lung carcinoma (SCLC), and prostate cancer (PC). (Refs. 43-48). These cancers rely upon elevated copper levels to sustain growth, making this transition metal a viable target for therapeutic modulation. (Ref 34).
Proliferation assay: Cells were plated in 384-well plates (500 cells/well for adherent cell lines in 30 μl volume). Drugs were serially diluted to the desired concentrations and an equivalent volume of DMSO was added to vehicle control. Following 72 h incubation, ATP content was measured using CellTiter-Glo reagent according to manufacturer's instructions (Promega, CellTiter-Glo Luminescent Cell Viability Assay), and analyzed by SpectraMax luminometer (Molecular Devices). IC50 and IC90 values, concentrations required to inhibit proliferation by 50% and 90% respectively compared to DMSO treated cells, were calculated using Prism 6.0 h (Graphpad Software).

MIAPACA2 cells = experiment: ROS measurements (CM-H2DCFDA, MitoSOX); assay type: cell-based, human; details: 24 h
Protocol: FIGS. 2A-2I. FIG. 2A: representative immunoblots of MIAPACA2 PDAC cells treated as indicated for 24h. FIGS. 2B-2C: reactive oxygen species (ROS) measurement using CM-H2DCFDA staining after HCT13 (25 nM)+Cu(II) (20 μM) treatment for 24h; mean fluorescence intensity (MFI); mean±SD, n=2, Student t-test, ***P<0.001. FIG. 2D-2E: mitochondrial ROS detection using MitoSOX staining in MIAPACA2 PDAC cells treated with HCT-13 (25 nM)+Cu(II) (20 μM) for 24h; mean±SD, n=2, Student t-test, ***P<0.001. FIG. 2F: oxygen consumption rate (OCR) of MIAPACA2 PDAC cells treated with HCT-13 (25 nM)+Cu(II) (20 μM). FIG. 2G: OCR of isolated mitochondria measured with or without HCT-13 (25 nM)+Cu(II) (20 μM). FIG. 2H: viability of 143 BTK parental (wild type, WT) and po cells after 48 h of treatment with the indicated HCT-13 concentrations+Cu(II) (20 μM) treatment, assessed with trypan blue staining; mean±SD, n=2, Student t-test, ***P<0.001. […]
ROS Measurements: Cellular ROS measurement was assayed with CM-H2DCFDA staining after treatment according to manufacturer's instructions (Reactive Oxygen Species (ROS) Detection Reagents, Invitrogen, #D399). […] The samples were analyzed using flow cytometry.
Mitochondrial ROS was measured using MitoSOX staining according to manufacturer's instructions (MitoSOX, Invitrogen, #M36008). […]
ROS Measurements. […] The samples were analyzed using flow cytometry. […]

`CN(C)C(=S)N/N=C/c1nccc2cc(F)ccc12` (mixture of isomers) [HCT13, (E)-2-((6-Fluoroisoquinolin-1-yl)methylene)-N,N-dimethylhydrazine-1-carbothioamide and (Z)-2-((6-Fluoroisoquinolin-1-yl)methylene)-N,N-dimethylhydrazine-1-carbothioamide] was tested, and the “sensitivity of normal cells versus cancer models” value [1] was “markedly more resistant”, the “ROS generation (CM-H2DCFDA staining)” value (MIAPACA2 cells; HCT13 25 nM + Cu(II) 20 μM) was “induced ROS generation” and the “mitochondrial ROS (MitoSOX)” value (MIAPACA2 cells; HCT-13 25 nM + Cu(II) 20 μM) was “also observed in the mitochondria”.
